From publication PMC10419975, “A Novel Betulinic Acid Analogue: Synthesis, Solubility, Antitumor Activity and Pharmacokinetic Study in Rats” (Molecules, 2023)
In brackets after ≈: the same amount, converted by molar mass. Like-named read-outs stand apart in the source and are kept apart here.

Legend:
[1] = Apparent oil/water partition coefficient (water-saturated n-octanol vs phosphate buffer); format: physicochemical; details: for logP: water-saturated n-octanol/phosphate buffer
Protocol: (§1) Equilibrium solubility was determined by the method described above. The apparent oil-water partition coefficient (P) was calculated through the mass concentration ratio of the oil phase and water phase after balancing SBE distribution using the following equations: P = C1V1/(C0V0 − C1V1), where C0 and C1 are the initial and final concentrations of SBE in n-octanol before and after equilibration, respectively; V0 is the volume of n-octanol (water-saturated), V1 is the final oil volume after equilibration.

Bad = test: Western blot analysis in Hela cells; format: cell-based; details: 50 μmol/L, 24 h, vs control cells
Protocol: (§2) Expression of the proteins including cleaved-cas9, Bad and Bcl-xL in Hela cells treated with BA or SBE were determined by western blot analysis. Briefly, HeLa cells (1.7 × 10^5) were seeded in a 6-well microplate and allowed to attach overnight (about 24 h). The cells were then treated with BA or SBE at a concentration of 50 μmol/L for another 24 h. After that, cells were collected and lysed in PIRA buffer (Beyotime Biotech, Beijing, China) with PhosSTOP phosphatase inhibitor cocktail tablets (Roche Diagnostics, Mannheim, Baden-Württemberg, Germany). Bradford method was used to quantify the protein concentration. The samples were denatured at 100 °C for 5 min using a block heater. Then 30 μg of the denatured samples were separated by SDS-PAGE and allowed to transfer to a PVDF membrane. After the blots were blocked and washed, they were incubated overnight at 4 °C with specific primary antibodies against cleaved-cas9, Bad, Bcl-xL and β-actin. The blotting membrane was then washed three times using TBS-tween (Tris buffer saline with 1% Tween-20, pH 7.5), and incubated with IgG secondary antibodies for another 1 h at room temperature (or incubated overnight at 4 °C), followed by the same washing procedures above. After that, the immunoreactive proteins were developed with the ECL system. Imagelab software was used to quantify proteins and β-actin was used as a loading control. The changed fold was represented by the protein expression ratio [(target protein/the β-actin)/(the control group/the β-actin)].

Bcl-xL = test: Western blot analysis in Hela cells; format: cell-based; details: 50 μmol/L, 24 h
Protocol: as §2

[2] = tested on: Lewis lung carcinoma (LLC) tumor; test: Lewis lung carcinoma (LLC) subcutaneous xenograft growth model; format: in vivo, C57BL/6J mice; details: 0.4 mmol/kg i.p. every other day; for tumor growth inhibition rate (IR) / effect on the body weight of the mice / mean tumor volume: 18 days; for effect on the body weight of the mice: vs vehicle control; for mean tumor volume: placebo 3522.72 ± 2446.63 mm^3; for tumor weight reduced by: day 18, vs vehicle control; for mean tumor weight: day 18, vehicle control 2.86 ± 1.16 g
Protocol: The antitumor activities in vivo assay were performed as described previously with minor modifications. C57BL/6J mice (20 ± 2 g) for the xenograft animal model were purchased from the Laboratory Animal Center of Jilin University (Jilin, China). A formulation of SBE (48 mg/mL) or BA (40 mg/mL) was prepared by mixing SBE or BA with ethanol/tween 80/normal saline (v/v/v = 1/1/18). Each of the mice was inoculated subcutaneously on the back with about 1 × 10^6 Lewis lung carcinoma (LLC) tumor cells (purchased from Nanjing KeyGen Biotech. Inc., China) to obtain the xenograft animal model. Then the mice were divided into three experimental groups (n = 4) randomly on the next day after implantation. BA (200 mg/kg, i.e., 0.4 mmol/kg), SBE (240 mg/kg, i.e., 0.4 mmol/kg) or placebo was injected intraperitoneally (i.p.) every other day. The changes in tumor length, width and body weight were also observed and recorded every other day. Xenograft tumor volume (TV) and growth inhibition rate (IR) were calculated as the following equation [25]:TV = 0.5 × length × width^2; IR = (Vcontrol − Vtreat)/Vcontrol × 100%.
Mice were continually observed for 18 days, and then sacrificed on day 18 via euthanasia. The implanted tumors then were excised and weighed for subsequent analysis. All the animal handling procedures above were according to standard operating procedures approved by the institutional animal care and use committee at Northeast Forestry University.

[3] = Equilibrium solubility in phosphate buffer at different pH; format: physicochemical; details: 20 °C, aqueous buffer, thermodynamic from solid
Protocol: (§3) The solubility was recorded at 20 °C in the present study. The solubility under equilibrium conditions was determined using the saturation shake-flask method with minor modifications. Briefly, an excess amount of SBE was added slowly to 1 mL of different solvents including methanol, ethanol, ethyl acetate, n-butanol, n-octanol, acetonitrile, petroleum ether as well as water. The mixture was then in crimp-sealed vials and was stirred vigorously at 20 °C for about 48 h. After that, the mixture was left to stand for an additional 24 h to reach equilibration, and then followed by centrifuging at 13,000 rpm for at least 10 min. 50 µL of the supernatant was transferred into a new tube, and evaporated to dryness under a slow nitrogen stream. The residue was then stored at −20 °C for further use or reconstituted in 1 mL of methanol. For the aqueous solution, 500 µL of the supernatant was transferred to the new tube, and the residue was reconstituted in 100 µL of methanol after dryness. After being centrifuged at 13,000 rpm for 10 min, a 20 μL aliquot was injected into the HPLC systems.
as §1, with “Equilibrium solubility and apparent oil-water partition coefficient of SBE in pH 5.0, 6.0, 6.5, 7.0, 7.4 and 8.0 phosphate buffer were also determined. Equilibrium” for “Equilibrium”

[4] = Equilibrium solubility in different solvents (saturation shake-flask, HPLC); format: physicochemical; details: 20 °C, thermodynamic from solid
Protocol: as §3

Bad/Bcl-xL ratio = test: Western blot analysis in Hela cells; format: cell-based; details: 50 μmol/L, 24 h
Protocol: as §2

cleaved-cas9 (caspase 9) = test: Western blot analysis in Hela cells; format: cell-based; details: 50 μmol/L, 24 h
Protocol: as §2

[5] = tested on: MPC2 (pancreatic cancer cell line); test: In vitro cytotoxic activity, MTT assay; format: cell-based; details: 72 h
Protocol: (§4) The in vitro cytotoxic activities of SBE were evaluated on six different tumor cell lines including MPC2 (pancreatic cancer cell line), HT29 (colon cancer cell line), DU145 (prostate cancer cell line), NCI-H520 (lung cancer cell line), Hela (cervical cancer cell line) and 2774 (ovarian cancer cell line) using MTT assay. Cells were cultured in RPMI DMEM medium (containing 100 IU/mL G-penicillin, 100 µg/mL streptomycin and supplemented with 10% fetal calf serum) at 37 °C with 5% of CO2 in a CO2 incubator. In the MTT experiments, the cells were initially seeded in a 96-well plate with 0.1–0.2 mL (about 15 × 10^3 cells) of culture medium per well and allowed to attach overnight (about 24 h). Once attached, the cell confluence in each well reached approximately 50–60% when the drugs were added. Then the medium was replaced with fresh medium containing SBE or BA at different concentrations in four replicates. After incubating in the CO2 incubator for 3 days (about 72 h), 30 µL of MTT solution (3 mg/mL in culture medium) was added to each well and incubated for an additional 4 h. The medium was then aspirated and 150 µL of DMSO was added to each well to dissolve the formazan crystals thoroughly. The absorbance (OD value) was quantitated at 490 nm using a microplate reader (ELX800, Biotek, America). The relative growth inhibition rate (%) was calculated as (1 − mean absorbance of the sample/mean absorbance of the control) × 100%, considering the optical density of the control as 100%.

[6] = tested on: HT29 (colon cancer cell line); test: In vitro cytotoxic activity, MTT assay; format: cell-based; details: Homo sapiens, HT-29, 72 h
Protocol: as §4

[7] = tested on: NCI-H520 (lung cancer cell line); test: In vitro cytotoxic activity, MTT assay; format: cell-based; details: Homo sapiens, 72 h
Protocol: as §4

[8] = tested on: Hela (cervical cancer cell line); test: In vitro cytotoxic activity, MTT assay; format: cell-based; details: Homo sapiens, 72 h
Protocol: as §4

[9] = tested on: DU145 (prostate cancer cell line); test: In vitro cytotoxic activity, MTT assay; format: cell-based; details: Homo sapiens, DU-145, 72 h
Protocol: as §4

[10] = tested on: 2774 (ovarian cancer cell line); test: In vitro cytotoxic activity, MTT assay; format: cell-based; details: 2774, MTT, 72 h
Protocol: as §4

[11] = Pharmacokinetics of BE after i.g. dosing (previous study); format: in vivo, rat; details: BE i.g. 500 mg/kg vs SBE i.g. 200 mg/kg
[12] = set-up: method as in PMID 24095874; details: i.g. dose of 500 mg/kg; cited from earlier work

SMILES: C=C(C)[C@@H]1CC[C@]2(COC(=O)CCC(=O)O)CC[C@]3(C)C(CCC4[C@@]5(C)CC[C@H](O)C(C)(C)C5CC[C@]43C)C12 (some centres unmarked) [SBE, 28-O-succinyl betulin]
- Apparent Oil/Water Partition Coefficient (P) ([1]; n-octanol/phosphate buffer pH 5): 9.68 ± 0.13
- Apparent Oil/Water Partition Coefficient (P) ([1]; n-octanol/phosphate buffer pH 6): 9.57 ± 0.30
- Apparent Oil/Water Partition Coefficient (P) ([1]; n-octanol/phosphate buffer pH 6.5): 9.75 ± 0.21
- Apparent Oil/Water Partition Coefficient (P) ([1]; n-octanol/phosphate buffer pH 7): 8.63 ± 0.19
- Apparent Oil/Water Partition Coefficient (P) ([1]; n-octanol/phosphate buffer pH 7.4): 8.14 ± 0.27
- Apparent Oil/Water Partition Coefficient (P) ([1]; n-octanol/phosphate buffer pH 8): 9.53 ± 0.23
- logP ([1]; pH 5, n-octanol/PBS, over pH 5–8, read-out: LogP values (all)): 0.91 to 0.99
- logP ([1]; pH 5, n-octanol/phosphate buffer pH 5, read-out: LogP): 0.99 ± 0.01
- logP ([1]; pH 6, n-octanol/phosphate buffer pH 6, read-out: LogP): 0.98 ± 0.01
- logP ([1]; pH 6.5, n-octanol/phosphate buffer pH 6.5, read-out: LogP): 0.99 ± 0.01
- logP ([1]; pH 7, n-octanol/phosphate buffer pH 7, read-out: LogP): 0.94 ± 0.01
- logP ([1]; pH 7.4, n-octanol/phosphate buffer pH 7.4, read-out: LogP): 0.91 ± 0.01
- logP ([1]; pH 8, n-octanol/phosphate buffer pH 8, read-out: LogP): 0.98 ± 0.01
- expression level of Bad (Bad): significantly higher
- Bcl-xL levels (Bcl-xL): no significant difference
- tumor growth inhibition rate (IR) [2]: about 88.69%
- effect on the body weight of the mice [2]: no obvious effect
- mean tumor volume [2]: 398.17 ± 384.06 mm^3
- tumor weight reduced by [2]: about 85.31%
- mean tumor weight [2]: 0.42 ± 0.40 g
- solubility thermodynamic at 48 h ([3]; phosphate buffer pH 5): 2.79 µg/mL (≈ 5.14 µM)
- solubility thermodynamic at 48 h ([3]; phosphate buffer pH 6): 2.66 µg/mL (≈ 4.9 µM)
- solubility thermodynamic at 48 h ([3]; phosphate buffer pH 6.5): 2.46 µg/mL (≈ 4.53 µM)
- solubility thermodynamic at 48 h ([3]; phosphate buffer pH 7): 10.9 µg/mL (≈ 20.1 µM)
- solubility thermodynamic at 48 h ([3]; phosphate buffer pH 7.4): 29.8 µg/mL (≈ 54.9 µM)
- solubility thermodynamic at 48 h ([3]; phosphate buffer pH 8): 15.3 µg/mL (≈ 28.2 µM)

SMILES: C=C(C)[C@@H]1CC[C@]2(C(=O)O)CC[C@]3(C)[C@H](CC[C@@H]4[C@@]5(C)CC[C@H](O)C(C)(C)[C@@H]5CC[C@]43C)[C@@H]12 [BA, 3β-hydroxy-lup-20(29)-en-28-oic acid, reference compound]
- solubility thermodynamic at 48 h ([4]; acetonitrile, organic solvent or mixture): 250 ± 20 µg/mL (≈ 547 µM)
- solubility thermodynamic at 48 h ([4]; ethanol, organic solvent or mixture): 4130 ± 20 µg/mL (≈ 9040 µM)
- solubility thermodynamic at 48 h ([4]; ethyl acetate, organic solvent or mixture): 4470 ± 240 µg/mL (≈ 9790 µM)
- solubility thermodynamic at 48 h ([4]; methanol, organic solvent or mixture): 1920 ± 440 µg/mL (≈ 4200 µM)
- solubility thermodynamic at 48 h ([4]; n-butanol, organic solvent or mixture): 4140 ± 100 µg/mL (≈ 9060 µM)
- solubility thermodynamic at 48 h ([4]; n-octanol, organic solvent or mixture): 6230 ± 680 µg/mL (≈ 13600 µM)
- solubility thermodynamic at 48 h ([4]; petroleum ether, organic solvent or mixture): 27 ± 10 µg/mL (≈ 59.1 µM)
- solubility thermodynamic at 48 h ([4]; water): 36 ± 10 µg/mL (≈ 78.8 µM)
- ratio of Bad/Bcl-xL (Bad/Bcl-xL ratio): notably up-regulated
- cleavage products of caspase 9 (cleaved-cas9 (caspase 9)): clearly increased
- Bcl-xL levels (Bcl-xL): no significant difference
- tumor growth inhibition rate (IR) [2]: ~61.93%
- effect on the body weight of the mice [2]: no obvious effect
- mean tumor volume [2]: 1340.91 ± 1186.99 mm^3
- tumor weight reduced by [2]: ~68.89%
- mean tumor weight [2]: 0.89 ± 0.53 g
- IC50 [5]: 38.6 ± 2.91 µM
- IC50 [6]: 32.7 ± 0.62 µM
- IC50 [7]: 19.6 ± 2.44 µM
- IC50 [8]: 25.9 ± 1.87 µM
- IC50 [9]: 23.3 ± 2.2 µM
- IC50 [10]: 39.5 ± 2.19 µM

SMILES: C=C(C)[C@@H]1CC[C@]2(CO)CC[C@]3(C)[C@H](CC[C@@H]4[C@@]5(C)CC[C@H](O)C(C)(C)[C@@H]5CC[C@]43C)[C@@H]12 [BE, lup-20(29)-en-3β, 28-diol]
- AUC0−∞ of BE relative to that of SBE [11]: about 5%
- AUC0−∞ [12]: 1408.3 ± 183.7 ng·h/mL
